Reference: patent US9670242B2, “Tetracyclic anthraquinone derivatives” (Tianjin Hemay Bio-Tech Co., Ltd, priority 2012, dated 2017)
One block for each compound: values may come before it.

Legend:
[1] = Solubility of the compound in water; format: physicochemical
MDA-MB-453 cells = experiment: MDA-MB-453 cell growth inhibition test (SRB assay); format: cell-based, human; conditions: growth inhibition at 2000 nM, 69.5 h
Description: MDA-MB-453 Cell Growth Inhibition Test (SRB Assay)
Cell strains: MDA-MB-453 (human breast cancer cell strains); SRB: 0.4% (w/v) working solution was formulated with 1% glacial acetic acid, reserved at 4° C.; antitumor compounds; DMSO.
(§1) II. Reagents and Consumable Materials
Culture medium: 90% L15+10% FBS; pancreatin (0.25% (w/v) solution was formulated with PBS, 0.53 mM of EDTA was added in the formulation); PBS; 96-well culture plate.
(§2) 1. A plate (10 cm) of cells in logarithmic growth phase that were normally cultured was collected;
(§3) 2. The culture solution was sucked out. The plate was washed with 5 mL of PBS once or twice;
(§4) 3. 1.5 mL of 0.25% pancreatin was added to the plate to infiltrate the cells;
(§5) 4. The pancreatin was sucked out. The culture plate was placed in an incubator. Digestion was carried out for about 3 min at 37° C.;
(§6) 5. 4 mL of complete culture solution was added to the culture plate to stop the digestion. The cells were carefully scoured with micropipette (1 ml) to give a uniform single cell suspension. The suspension was implanted into a 96-well cell culture plate by 7000 cells/100 μL per well. The culture plate was incubated overnight under 5% CO2 at 37° C. In day 2, 100 μL of culture solution comprising a compound was added in each well.
The plate was further incubated for 69.5 h under 5% CO2 at 37° C.;
(§7) 6. The culture solution was sucked out. 100 uL of TCA fixed cells which were diluted to 10% were added to each well. The plate was kept in a refrigerator for 1 h at 4° C.
(§8) 7. TCA stationary liquid was sucked out. Each well was washed with 150 μL of ddH2O five times;
(§9) 8. After the stationary liquid was cleansed, the plate was dried in the air at the room temperature;
(§10) 9. 60 μL of SRB staining solution was added in each well. The well was stained for 15 min at the room temperature;
(§11) 10. The SRB staining solution was sucked out. Each well was washed with 150 μL of 1% glacial acetic acid five times;
(§12) 11. After the SRB staining solution was cleansed, the plate was dried in the air at the room temperature;
(§13) 12. 100 μL of 10 mM Tris was added in each well. The plate was vibrated to dissolve out SRB;
(§14) 13. OD values were determined at 570 nM.
(§15) IV. Results and Treatments
(§16) 1. Calculation of Relative Inhibition Ratio The inhibition ratio of a compound on cell growth=(PC−n)/(PC−NC)×100%
(§17) PC: OD values of cells after normal growth in control wells without a compound;
(§18) n: OD values of cells after growth in test wells with a compound;
(§19) NC: Background OD values of blank wells without a compound and cells.

BxPc-3 cells = experiment: BxPc-3 cell growth inhibition test (MTT assay); format: cell-based, human; conditions: growth inhibition at 2000 nM, 70 h
Description: BxPc-3 Cell Growth Inhibition Test (MTT Assay)
Cell strains: BxPC-3 (human pancreatic cancer cell strains); MTT; antitumor compounds; DMSO.
as §1
(§20) Culture medium: 90% RPMI-1640+10% FBS; Pancreatin (0.25% (w/v) solution was formulated with PBS, 0.53 mM of EDTA was added in the formulation); PBS; 96-well culture plate.
as §2, §3
(§21) 3. PBS was sucked out. 1.5 mL of 0.25% pancreatin was added to infiltrate the cells;
4. The culture plate was placed in an incubator. Digestion was carried out for about 8 min at 37° C.;
(§22) 5. 4.5 mL of complete culture solution was added to the culture plate to stop the digestion. The cells were carefully scoured with micropipette (1 ml) to give a uniform cell suspension. The suspension was implanted into a 96-well cell culture disc by 5000 cells/100 μL per well. The culture plate was incubated overnight under 5% CO2 at 37° C. In day 2, 100 μL of culture solution comprising a compound was added in each well. The plate was further incubated for 70 h under 5% CO2 at 37° C.;
(§23) 6. The culture solution was sucked out;
(§24) 7. 100 μL of serum-free culture solution containing 0.5 mg/mL MTT was added in each well. The plate was incubated for 3 h;
(§25) 8. The culture solution was carefully sucked out;
(§26) 9. 100 μL of DMSO was added into each well and vibrated to dissolve;
(§27) 10. OD values were determined at 490 nM.
as §15, §16, §17, §18, §19

SK-OV-3 cells = experiment: SK-OV-3 cell growth inhibition test (MTT assay); format: cell-based, human; conditions: growth inhibition at 667 nM, 69 h
Description: SK-OV-3 Cell Growth Inhibition Test (MTT Assay)
Cell strains: SK-OV-3 (human ovarian cancer cell strains); MTT; antitumor compounds; DMSO.
as §1
Culture medium: 90% McCoy's 5A+10% FBS; Pancreatin (0.25% (w/v) solution was formulated with PBS, 0.53 mM of EDTA was added in the formulation); PBS; 96-well culture plate.
as §2, §3, §21
4. The pancreatin was sucked out. The culture plate was placed in an incubator. Digestion was carried out for about 5 min at 37° C.;
as §22, with “4000” for “5000”, “69” for “70”
as §23, §24, §25
9. 100 μL of DMSO was added in each well and vibrated to dissolve;
as §27, §15, §16, §17, §18, §19

22Rv1 cells = experiment: 22Rv1 cell growth inhibition test (SRB assay); format: cell-based, human; conditions: growth inhibition at 222 nM, 73 h
Description: 22Rv1 Cell Growth Inhibition Test (SRB Assay)
Cell strains: 22Rv1 (human prostate cancer cell strains); SRB: 0.4% (w/v) working solution was formulated with 1% glacial acetic acid, reserved at 4° C.; antitumor compounds; DMSO.
as §1, §20, §2, §3, §4, §5
as §6, with “each well. The plate was further incubated for 73 h under 5% CO2 at 37° C.;” for “each well.”
as §7, §8, §9, §10, §11, §12, §13, §14, §15, §16, §17, §18, §19

NCI-H446 cells = experiment: NCI-H446 cell growth inhibition test (MTT assay); format: cell-based, human; conditions: growth inhibition at 222 nM, 70 h
Description: NCI-H446 Cell Growth Inhibition Test (MTT Assay)
Cell strains: NCI-H446 (human small cell lung cancer cell strains); MTT; antitumor compounds; DMSO.
as §1, §20, §2, §3, §21
4. The culture plate was placed in an incubator. Digestion was carried out for about 3 min at 37° C.;
as §22, with “3” for “4.5”, “4000” for “5000”
as §23, §24, §25, §26, §27, §15, §16, §17, §18, §19

solubility of the compound in water [1]: more than 16 mg/ml
SMILES: CC(=O)O.COc1cccc2c1C(=O)c1c(O)c3c(c(O)c1C2=O)CC(O)(C(=O)COC(=O)CCC(=O)N1CCN(CCCN(C)C)CC1)CC3O[C@H]1C[C@H](n2cccc2)[C@H](O)[C@H](C)O1 (stereo partly drawn) [Example 87, 10-((3′-(pyrrol-1-yl)-2′,3′,6′-trideoxy-alphal-l-lyxo-hexylpyranyl)oxy)-7,8,9,10-tetrahydro-6,8,11-trihydroxy-13-oxo-14-(4-(4-(3-(dimethylamino)propyl)piperazin-1-yl)-4-oxo-butyrato)-1-methoxy-5,12-naphthalenedione acetate]

solubility of the compound in water [1]: more than 11 mg/ml
SMILES: CC(=O)O.COc1cccc2c1C(=O)c1c(O)c3c(c(O)c1C2=O)CC(O)(C(=O)COC(=O)CCC(=O)NCCc1cccnc1)CC3O[C@H]1C[C@H](n2cccc2)[C@H](O)[C@H](C)O1 (stereo partly drawn) [Example 85]

solubility of the compound in water [1]: more than 6 mg/ml
SMILES: CC(=O)O.COc1cccc2c1C(=O)c1c(O)c3c(c(O)c1C2=O)CC(O)(C(=O)COC(=O)CCC(=O)NCc1ccncc1)CC3O[C@H]1C[C@H](n2cccc2)[C@H](O)[C@H](C)O1 (stereo partly drawn) [Example 82]

solubility of the compound in water [1]: more than 22 mg/ml
SMILES: CC(=O)O.COc1cccc2c1C(=O)c1c(O)c3c(c(O)c1C2=O)CC(O)(C(=O)COC(=O)CCC(=O)NCCCN1CCOCC1)CC3O[C@H]1C[C@H](n2cccc2)[C@H](O)[C@H](C)O1 (stereo partly drawn) [Example 78, 10-((3′-(pyrrol-1-yl)-2′,3′,6′-trideoxy-alphal-l-lyxo-hexylpyranyl)oxy)-7,8,9,10-tetrahydro-6,8,11-trihydroxy-13-oxo-14-(4-((3-(morpholin-1-yl)propyl)amino)-4-oxo-butyrato)-1-methoxy-5,12-naphthalenedione acetate]

solubility of the compound in water [1]: more than 3 mg/ml
SMILES: CC(=O)O.COc1cccc2c1C(=O)c1c(O)c3c(c(O)c1C2=O)CC(O)(C(=O)COC(=O)CCC(=O)NCCc1ccncc1)CC3O[C@H]1C[C@H](n2cccc2)[C@H](O)[C@H](C)O1 (stereo partly drawn) [Example 86]

solubility of the compound in water [1]: more than 12 mg/ml
SMILES: CC(=O)O.COc1cccc2c1C(=O)c1c(O)c3c(c(O)c1C2=O)CC(O)(C(=O)COC(=O)CCC(=O)NCCc1ccccn1)CC3O[C@H]1C[C@H](n2cccc2)[C@H](O)[C@H](C)O1 (stereo partly drawn) [Example 84]

SMILES: COc1cccc2c1C(=O)c1c(O)c3c(c(O)c1C2=O)CC(O)(C(=O)COC(=O)CCCC(=O)Nc1ccc(CN2CCOCC2)cc1)CC3OC1CC(n2cccc2)C(O)C(C)O1 (stereo not drawn) [Example 3]
Inhibition Ratio (%) (MDA-MB-453 cells): 73.9%
Inhibition Ratio (%) (BxPc-3 cells): 81.2%
Inhibition Ratio (%) (SK-OV-3 cells): 62.5%
Inhibition Ratio (%) (22Rv1 cells): 61.9%
Inhibition Ratio (%) (NCI-H446 cells): 60.8%

SMILES: COc1cccc2c1C(=O)c1c(O)c3c(c(O)c1C2=O)CC(O)(C(=O)COC(=O)CCC(=O)Nc1cccnc1)CC3OC1CC(n2cccc2)C(O)C(C)O1 (stereo not drawn) [Example 24]
Inhibition Ratio (%) (MDA-MB-453 cells): 79.8%
Inhibition Ratio (%) (BxPc-3 cells): 84.7%
Inhibition Ratio (%) (SK-OV-3 cells): 61.4%
Inhibition Ratio (%) (22Rv1 cells): 63.6%
Inhibition Ratio (%) (NCI-H446 cells): 61.8%

SMILES: COc1cccc2c1C(=O)c1c(O)c3c(c(O)c1C2=O)CC(O)(C(=O)COC(=O)CCC(=O)NCCc1ccccn1)CC3OC1CC(n2cccc2)C(O)C(C)O1 (stereo not drawn) [Example 34]
Inhibition Ratio (%) (MDA-MB-453 cells): 80.5%
Inhibition Ratio (%) (BxPc-3 cells): 84%
Inhibition Ratio (%) (SK-OV-3 cells): 59.4%
Inhibition Ratio (%) (22Rv1 cells): 63.3%
Inhibition Ratio (%) (NCI-H446 cells): 60.7%

SMILES: COc1cccc2c1C(=O)c1c(O)c3c(c(O)c1C2=O)CC(O)(C(=O)COC(=O)CCC(=O)NS(C)(=O)=O)CC3OC1CC(n2cccc2)C(O)C(C)O1 (stereo not drawn) [Example 94]
Inhibition Ratio (%) (MDA-MB-453 cells): 75.8%
Inhibition Ratio (%) (BxPc-3 cells): 84.9%
Inhibition Ratio (%) (SK-OV-3 cells): 71.4%
Inhibition Ratio (%) (22Rv1 cells): 60.7%
Inhibition Ratio (%) (NCI-H446 cells): 48.4%

SMILES: COc1cccc2c1C(=O)c1c(O)c3c(c(O)c1C2=O)CC(O)(C(=O)COC(=O)CCC(=O)N1CCN(CCO)CC1)CC3OC1CC(n2cccc2)C(O)C(C)O1 (stereo not drawn) [Example 8]
Inhibition Ratio (%) (MDA-MB-453 cells): 75.3%
Inhibition Ratio (%) (BxPc-3 cells): 82.6%
Inhibition Ratio (%) (SK-OV-3 cells): 60%
Inhibition Ratio (%) (22Rv1 cells): 56.8%
Inhibition Ratio (%) (NCI-H446 cells): 59.5%

SMILES: COc1cccc2c1C(=O)c1c(O)c3c(c(O)c1C2=O)CC(O)(C(=O)COC(=O)CCC(=O)NCCc1ccc(S(N)(=O)=O)cc1)CC3OC1CC(n2cccc2)C(O)C(C)O1 (stereo not drawn) [Example 38]
Inhibition Ratio (%) (MDA-MB-453 cells): 75.8%
Inhibition Ratio (%) (BxPc-3 cells): 82.4%
Inhibition Ratio (%) (SK-OV-3 cells): 67.6%
Inhibition Ratio (%) (22Rv1 cells): 56.3%
Inhibition Ratio (%) (NCI-H446 cells): 62.6%

SMILES: COc1cccc2c1C(=O)c1c(O)c3c(c(O)c1C2=O)CC(O)(C(=O)COC(=O)CCC(=O)NN1CCOCC1)CC3OC1CC(n2cccc2)C(O)C(C)O1 (stereo not drawn) [Example 10]
Inhibition Ratio (%) (MDA-MB-453 cells): 78.5%
Inhibition Ratio (%) (BxPc-3 cells): 85%
Inhibition Ratio (%) (SK-OV-3 cells): 71.5%
Inhibition Ratio (%) (22Rv1 cells): 62.7%
Inhibition Ratio (%) (NCI-H446 cells): 61.1%

SMILES: COc1cccc2c1C(=O)c1c(O)c3c(c(O)c1C2=O)CC(O)(C(=O)COC(=O)CCC(=O)NCc1cccnc1)CC3OC1CC(n2cccc2)C(O)C(C)O1 (stereo not drawn) [Example 28]
Inhibition Ratio (%) (MDA-MB-453 cells): 81.9%
Inhibition Ratio (%) (BxPc-3 cells): 84.7%
Inhibition Ratio (%) (SK-OV-3 cells): 66.2%
Inhibition Ratio (%) (22Rv1 cells): 63.1%
Inhibition Ratio (%) (NCI-H446 cells): 65.8%

SMILES: COc1cccc2c1C(=O)c1c(O)c3c(c(O)c1C2=O)CC(O)(C(=O)COC(=O)CCC(=O)NCCO)CC3OC1CC(n2cccc2)C(O)C(C)O1 (stereo not drawn) [Example 60]
Inhibition Ratio (%) (MDA-MB-453 cells): 76.3%
Inhibition Ratio (%) (BxPc-3 cells): 83.4%
Inhibition Ratio (%) (SK-OV-3 cells): 58.9%
Inhibition Ratio (%) (22Rv1 cells): 52.9%
Inhibition Ratio (%) (NCI-H446 cells): 52.5%
